Source: patent US20030229067A1, “Pyrrolopyrimidine A2b selective antagonist compounds, their synthesis and use” (priority 2001, published 2003)

Assays:
[1] = biological target: T1, human A2B receptor (Homo sapiens, UniProt P29275); assay: Radioligand binding assay ([3H]-DPCPX competition), membranes of HEK293 stably expressing human A2B receptor; conditions: for selectivity for the A2B receptor relative to the A1, A2A, and A3 receptor: fold selectivity A2B over A1, A2A and A3 receptors
T1 construct: expressed in transfected cells; membranes prepared from the cells
T1 sequence (P29275 1-332): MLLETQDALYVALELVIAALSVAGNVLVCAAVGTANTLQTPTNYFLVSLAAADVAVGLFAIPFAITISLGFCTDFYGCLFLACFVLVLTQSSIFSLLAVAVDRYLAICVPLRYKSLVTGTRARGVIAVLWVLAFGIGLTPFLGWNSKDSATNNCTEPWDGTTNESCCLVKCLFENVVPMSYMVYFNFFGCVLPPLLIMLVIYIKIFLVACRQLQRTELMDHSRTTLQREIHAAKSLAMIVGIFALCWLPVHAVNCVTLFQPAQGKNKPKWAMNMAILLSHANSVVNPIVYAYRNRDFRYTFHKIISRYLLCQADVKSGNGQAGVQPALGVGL
Description: Materials. [^3H]—DPCPX [cyclopentyl-1,3-dipropylxanthine] (120 Ci/mmol) was purchased from New England Nuclear (Boston, Mass.). The adenosine deaminase and complete protease inhibitor cocktail tablets were purchased from Boehringer Mannheim Corp. (Indianapolis, Ind.). Cell culture reagents were from Life Technologies (Grass Island, N.Y.) except for serum that was from Hyclone (Logan, Utah).
Cell line. HEK293 stably expressing the human A2B receptor were used for radioligand binding assays. Cells were grown in DMEM Glutamax containing 10% FBS, 0.2 mg/ml G418 at 37° C. in 5% CO2/95% atmosphere.
Membrane Preparation. Cells were washed with cold PBS buffer twice, scraped off the plates, and centrifuged at 1000×g for 5 minutes. Cells were homogenized with ice-cold buffer of 5 mM Tris, pH 7.4, 5 mM EDTA, 5 mM EGTA, protease inhibitor cocktail tablets and incubated for 10 min on ice. The homogenate was centrifuged at 32,000×g for 30 min. The membranes were resuspended in buffer of 50 mM Tris, pH 7.4, 0.6 mM EDTA, 5 mM MgCl2, stored at −80° C. until use. Protein concentration was determined by the methods of Bradford.
Radioligand binding assay. Membranes were homogenized in buffer containing 10 mM HEPES-KOH, pH 7.4 containing 1.0 mM EDTA; 2 U/ml adenosine deaminase; and 0.1 mM Benzamidine and incubated for 30 min at room temperature. Dissociation constants of radioligand (Kd values) and maximum binding sites (Bmax) were determined in saturation binding experiments. Saturation binding assays were carried out in a reaction mixture containing 50 μl of membrane suspension, 25 μl of 4% DMSO, 25 μl of increasing amounts of radioligand, [^3H]—DPCPX (final concentration 1-200 nM). […] Nonspecific binding was measured in the presence of […] NECA. Compounds were dissolved in
DMSO and then diluted with 4% DMSO; the final maximum DMSO concentrations were 1%. […] Reactions were terminated by rapid filtration over GF/C filters using a cell harvester. The filters were washed ten times with 0.4 ml of ice-cold buffer containing 10 mM HEPES-KOH, pH 7.4. The filters were dried, covered with scintillation fluid and counted with a TopCount.

## CC(=O)NCCNc1nc(-c2ccccc2)nc2[nH]c(COC3CCN(CCc4ccccc4Cl)CC3)cc12 [17.7, N-[2-(6-{1-[2-(2-Chlorophenyl)ethyl]piperidin-4-yloxymethyl}-2-phenyl-7H-pyrrolo[2,3-d]pyrimidin-4-ylamino)ethyl]acetamide]
[1]; [3H]-DPCPX competition binding
  Ki: 5 nM
[1]; binding assays
  selectivity for the A2B receptor relative to the A1, A2A, and A3 receptor: 26 ×

## CC(=O)NCCNc1nc(-c2ccccc2)nc2[nH]c(COC3CCN(CCc4ccccc4Cl)CC3)cc12.CS(=O)(=O)O [17.7.MsOH, N-[2-(-6-{1-[2-(2-Chlorophenyl)ethyl]piperidine-4-yloxymethyl}-2-phenyl-7H-pyrrolo[2,3-d]pyrimidin-4-ylamino)ethyl]acetamide methanesulfonic acid salt]
[1]; binding assays
  selectivity for the A2B receptor relative to the A1, A2A, and A3 receptor: 24 ×

## COC1(c2ccccc2Cl)CCN(C(=O)c2cc3c(NCCNC(C)=O)nc(-c4ccccc4)nc3[nH]2)CC1 [26.42, N-(2-{6-[4-(2-Chlorophenyl)-4-methoxypiperidine-1-carbonyl]-2-phenyl-7H-pyrrolo[2,3-d]pyrimidin-4-ylamino}-ethyl)-acetamide]
[1]; binding assays
  selectivity for the A2B receptor relative to the A1, A2A, and A3 receptor: 57 ×
other
  melting point: 201 to 202 °C

## CC(=O)NCCNc1nc(-c2ccccc2)nc2[nH]c(C(=O)N3CCN(c4ccc(Cl)cc4)CC3)cc12 [26.71, N-(2-{6-[4-(4-Chlorophenyl)-piperazine-1-carbonyl]-2-phenyl-7H-pyrrolo[2,3-d]pyrimidin-4-ylamino}-ethyl)-acetamide]
[1]; binding assays, A2B vs A1, A2A, A3
  receptor profile in words (selectivity listing): A1/A2B dual antagonist
[1]; binding assays
  selectivity for the A2B receptor relative to the A1, A2A, and A3 receptor: 82 ×

## CC(=O)NCCNc1nc(-c2ccccc2)nc2[nH]c(C(=O)N3CCN(CCCc4ccc(Cl)cc4)CC3)cc12 [26.135, N-[2-(6-{4-[3-(4-Chlorophenyl)-propyl]-piperazine-1-carbonyl}-2-phenyl-7H-pyrrolo[2,3-d]pyrimidin-4-ylamino)-ethyl]-acetamide]
[1]; binding assays
  selectivity for the A2B receptor relative to the A1, A2A, and A3 receptor: 19 ×

## CC(=O)NCCNc1nc(-c2ccccc2)nc2[nH]c(C(=O)N3CCN(CCCc4ccc(Cl)cc4)CC3)cc12.CS(=O)(=O)O [26.135.MsOH, N-[2-(6-{4-[3-(4-Chlorophenyl)-propyl]-piperazine-1-carbonyl}-2-phenyl-7H-pyrrolo[2,3-d]pyrimidin-4-ylamino)-ethyl]-acetamide methanesulfonate salt]
[1]; binding assays
  selectivity for the A2B receptor relative to the A1, A2A, and A3 receptor: 17 ×

## CC(=O)NCCNc1nc(-c2ccccc2)nc2[nH]c(C(=O)N3CCC(C#N)(c4ccccc4Cl)CC3)cc12 [26.237, N-(2-{6-[4-(2-Chlorophenyl)-4-cyanopiperidine-1-carbonyl]-2-phenyl-7H-pyrrolo[2,3-d]pyrimidin-4-ylamino}-ethyl)-acetamide]
[1]; binding assays
  selectivity for the A2B receptor relative to the A1, A2A, and A3 receptor: 57 ×

## CC(=O)NCCNc1nc(-c2ccccc2)nc2[nH]c(C(=O)N3CCC(C#N)(c4ccccc4Cl)CC3)cc12.CS(=O)(=O)O [26.237.MsOH, N-(2-{6-[4-(2-Chlorophenyl)4-cyanopiperidine-1-carbonyl]-2-phenyl-7H-pyrrolo[2,3-d]pyrimidin-4-ylamino}-ethyl)-acetamide methanesulfonic acid salt]
[1]; binding assays
  selectivity for the A2B receptor relative to the A1, A2A, and A3 receptor: 33 ×
